Measured values from patent publication US20230217926A1, “SELECTIVE HERBICIDES BASED ON SUBSTITUTED ISOXAZOLIN CARBOXAMIDES AND ISOXADIFEN-ETHYL” (BAYER AKTIENGESELLSCHAFT, priority 2020, published 2023).

Key:
TRZAS Triso [1] = experiment: Tank-mix post-emergence crop damage, greenhouse, visual assessment; format: in vivo, spring wheat; details: 21 DAT; for Reduction [%] / Reduction [Difference]: isoxadifen-ethyl 50 g a.i./ha; for HER effect: no safener
Method: (§1) Seeds of crops (spring wheat, TRZAS; spring barley, HORVS; maize, ZEAMA) were placed in sandy loam soil in peat pots, covered with soil and cultivated in a greenhouse under good growth conditions. Two to three weeks after sowing, the test plants were treated at the 1 to 3-leaf stage. The herbicide/safener active compound combinations according to the invention, formulated as wettable powders or emulsion concentrates, and, in parallel tests, the correspondingly formulated individual active compounds were sprayed onto the green parts of the plants in various dosages using an amount of water of 300 l/ha (converted).
(§2) The pots were returned under good growing conditions in a glasshouse and a visual assessment of herbicidal effects was made at intervals from 1 to 3 weeks after herbicide application (DAT=days after treatment). Assessment was on a percentage basis in comparison with untreated control plants (0%=no injury, 100%=complete kill).
(§3) Reduction[Difference]=herbicide damage without safener−herbicide damage with safener Reduction[%]=(Reduction[Difference]*100)/herbicide damage without safener
5d) Plant Species, Variety: TRZAS Triso, Safener (SAF): Isoxadifen-Ethyl

ZEAMA Sileno [2] = experiment: as above; format: in vivo, maize; parameters: key to Reduction [Difference]: % points: herbicide damage without safener − damage with safener; details: for HER effect + SAF / Reduction [%] / Reduction [Difference]: Final; for HER effect: no safener, Final assessment
Method: as §1, §2, §3
a) Plant Species, Variety: ZEAMA Sileno, Safener (SAF): Isoxadifen-Ethyl

ZEAMA Sileno [3] = experiment: Safener seed treatment, pre-emergence herbicide, crop damage; format: in vivo, maize; parameters: key to Reduction [Difference]: % crop damage without safener minus % damage with safener; details: for Reduction [%] / Reduction [Difference]: isoxadifen-ethyl 0.25 g a.i./kg seed; for HER effect + SAF: isoxadifen-ethyl seed treatment 0.25 g a.i./kg seed; for HER effect: no safener
Method: (§4) For the safener seed treatment, sufficient seeds of the respective crops (spring wheat, TRZAS; spring barley, HORVS; maize, ZEAMA) were weighed into screw top glass bottles approximately twice the volume of the seeds.
(§5) The specified safeners, formulated as wettable powder (WP) were weighed out so that the specified rates (g a.i./kg seed) would be obtained, dissolved in water (1 ml water per 10 g of seeds), and added to the seeds to produce a slurry.
(§6) The bottles were capped and then placed in an overhead shaker (set at medium speed for ca. 60 minutes) so that the seeds were evenly coated with the slurry. The bottles were uncapped and the seeds were either placed on paper and dried for an interval of 3-4 hours prior to sowing, or directly sown. Seeds were placed in sandy loam soil in pots of a diameter of 7-8 cm, and covered with soil.
(§7) Pre-emergence application of the specified herbicides was done subsequently, on two sets of plants: a) seed treatment with safener, as described above
(§8) The herbicides were formulated as WP and was sprayed onto the soil surface as an aqueous suspension at an equivalent water application rate of 300 l/ha.
(§9) After application, the test plants were kept in the greenhouse under good growth conditions. At intervals up to 4 weeks after application (=28 days after treatment; DAT), % crop damage observed on the treated plants was scored visually in comparison to control plants that had not received any safener or herbicide treatment.
(§10) Values in the table below are mean values of at least 2 replicates.
Reduction[Difference]=herbicide damage without safener−herbicide damage with safener Reduction[%]=(Reduction[Difference]*100)/herbicide damage without safener […]
c) Plant Species, Variety: ZEAMA Sileno, Safener (SAF): Isoxadifen-Ethyl

HORVS Montoya [4] = experiment: Tank-mix post-emergence crop damage, greenhouse, visual assessment; format: in vivo, spring barley; details: 10 DAT; for Reduction [%] / Reduction [Difference]: isoxadifen-ethyl 50 g a.i./ha; for HER effect: no safener
Method: as §1, §2, §3
c) Plant Species, Variety: HORVS Montoya, Safener (SAF): Isoxadifen-Ethyl

TRZAS Triso [5] = experiment: Safener seed treatment, pre-emergence herbicide, crop damage; format: in vivo, spring wheat; parameters: key to Reduction [Difference]: % crop damage without safener minus % damage with safener; details: for Reduction [%] / Reduction [Difference]: isoxadifen-ethyl 0.25 g a.i./kg seed; for HER effect + SAF: isoxadifen-ethyl seed treatment 0.25 g a.i./kg seed; for HER effect: no safener
Method: as §4, §5, §6, §7, §8, §9, §10
Reduction[Difference]=herbicide damage without safener−herbicide damage with safener Reduction[%]=(Reduction[Difference]*100)/herbicide damage without safener a) Plant Species, Variety: TRZAS Triso, Safener (SAF): Isoxadifen-Ethyl

HORVS Montoya [6] = experiment: as above; format: in vivo, spring barley; parameters: key to Reduction [Difference]: % crop damage without safener minus % damage with safener; details: HER 15 g a.i./ha pre-emergence; for Reduction [%] / Reduction [Difference]: isoxadifen-ethyl 0.25 g a.i./kg seed; for HER effect + SAF: isoxadifen-ethyl seed treatment 0.25 g a.i./kg seed; for HER effect: no safener
Method: as §4, §5, §6, §7, §8, §9, §10
Reduction[Difference]=herbicide damage without safener−herbicide damage with safener Reduction[%]=(Reduction[Difference]*100)/herbicide damage without safener b) Plant Species, Variety: HORVS Montoya, Safener (SAF): Isoxadifen-Ethyl

[7] = HER 0.25 g a.i./ha + isoxadifen-ethyl 50 g a.i./ha
[8] = HER 2 g a.i./ha + isoxadifen-ethyl 50 g a.i./ha
[9] = HER 2 g a.i./ha, isoxadifen-ethyl 50 g a.i./ha
[10] = HER 40 g a.i./ha pre-emergence, 14 DAT
[11] = HER 5 g a.i./ha pre-emergence, 11 DAT (Interim)
[12] = HER 5 g a.i./ha pre-emergence, 21 DAT (Final)
[13] = HER 8 g a.i./ha, isoxadifen-ethyl 50 g a.i./ha
[14] = HER 32 g a.i./ha, isoxadifen-ethyl 100 g a.i./ha
[15] = HER 15 g a.i./ha pre-emergence, 11 DAT (Interim)
[16] = HER 0.5 g a.i./ha + isoxadifen-ethyl 50 g a.i./ha
[17] = HER 40 g a.i./ha pre-emergence, 26 DAT
[18] = HER 80 g a.i./ha pre-emergence, 14 DAT
[19] = HER 80 g a.i./ha pre-emergence, 26 DAT
[20] = HER 15 g a.i./ha pre-emergence, 21 DAT (Final)

C=CC1(C(=O)NC2COC(C(=O)OC)C2)CC(c2cc(F)cc(F)c2)=NO1 (mixture of isomers) [Example 1.68]
HER effect + SAF (TRZAS Triso [1]; [7]): 20%
Reduction [%] (TRZAS Triso [1]; HER 0.25 g a.i./ha): 50%
Reduction [Difference] (TRZAS Triso [1]; HER 0.25 g a.i./ha): 20
HER effect (TRZAS Triso [1]; HER 0.25 g a.i./ha): 40%
HER effect + SAF (TRZAS Triso [1]; HER 1 g a.i./ha + isoxadifen-ethyl 50 g a.i./ha): 70%
Reduction [%] (TRZAS Triso [1]; HER 1 g a.i./ha): 25%
Reduction [Difference] (TRZAS Triso [1]; HER 1 g a.i./ha): 23
HER effect (TRZAS Triso [1]; HER 1 g a.i./ha): 93%
HER effect + SAF (ZEAMA Sileno [2]; [8]): 25%
Reduction [%] (ZEAMA Sileno [2]; [9]): 58%
Reduction [Difference] (ZEAMA Sileno [2]; [9]): 35
HER effect (ZEAMA Sileno [2]; HER 2 g a.i./ha, 0%=no injury, 100%=complete kill): 60%
Reduction [%] (ZEAMA Sileno [3]; [10]): 25%
Reduction [Difference] (ZEAMA Sileno [3]; [10]): 23
HER effect + SAF (ZEAMA Sileno [3]; [10]): 70%
HER effect (ZEAMA Sileno [3]; [10]): 93%
HER effect + SAF (HORVS Montoya [4]; [7]): 0%
Reduction [%] (HORVS Montoya [4]; HER 0.25 g a.i./ha): 100%
Reduction [Difference] (HORVS Montoya [4]; HER 0.25 g a.i./ha): 20
HER effect (HORVS Montoya [4]; HER 0.25 g a.i./ha): 20%
Reduction [%] (TRZAS Triso [5]; [11]): 44%
Reduction [Difference] (TRZAS Triso [5]; [11]): 20
Reduction [%] (TRZAS Triso [5]; [12]): 56%
Reduction [Difference] (TRZAS Triso [5]; [12]): 25
HER effect + SAF (TRZAS Triso [5]; [11]): 25%
HER effect + SAF (TRZAS Triso [5]; [12]): 20%
HER effect (TRZAS Triso [5]; [11]): 45%
HER effect (TRZAS Triso [5]; [12]): 45%
Reduction [%] (HORVS Montoya [6]; 11 DAT (Interim)): 31%
Reduction [Difference] (HORVS Montoya [6]; 11 DAT (Interim)): 20
HER effect + SAF (HORVS Montoya [6]; 11 DAT (Interim)): 45%
HER effect (HORVS Montoya [6]; 11 DAT (Interim)): 65%

COC(=O)C1C=CC(NC(=O)C2(C(F)(F)F)CC(c3cccc(F)c3)=NO2)C1 (centres unmarked) [Example 1.18]
HER effect + SAF (ZEAMA Sileno [2]; HER 8 g a.i./ha + isoxadifen-ethyl 50 g a.i./ha): 25%
Reduction [%] (ZEAMA Sileno [2]; [13]): 73%
Reduction [Difference] (ZEAMA Sileno [2]; [13]): 69
HER effect (ZEAMA Sileno [2]; HER 8 g a.i./ha): 94%
HER effect + SAF (ZEAMA Sileno [2]; HER 32 g a.i./ha + isoxadifen-ethyl 100 g a.i./ha): 20%
Reduction [%] (ZEAMA Sileno [2]; [14]): 79%
Reduction [Difference] (ZEAMA Sileno [2]; [14]): 77
HER effect (ZEAMA Sileno [2]; HER 32 g a.i./ha): 97%
Reduction [%] (ZEAMA Sileno [3]; [10]): 63%
Reduction [Difference] (ZEAMA Sileno [3]; [10]): 25
HER effect + SAF (ZEAMA Sileno [3]; [10]): 15%
HER effect (ZEAMA Sileno [3]; [10]): 40%
Reduction [%] (TRZAS Triso [5]; [15]): 67%
Reduction [Difference] (TRZAS Triso [5]; [15]): 30
HER effect + SAF (TRZAS Triso [5]; [15]): 15%
HER effect (TRZAS Triso [5]; [15]): 45%
Reduction [%] (HORVS Montoya [6]; 11 DAT (Interim)): 50%
Reduction [Difference] (HORVS Montoya [6]; 11 DAT (Interim)): 20
Reduction [%] (HORVS Montoya [6]; 21 DAT (Final)): 88%
Reduction [Difference] (HORVS Montoya [6]; 21 DAT (Final)): 35
HER effect + SAF (HORVS Montoya [6]; 11 DAT (Interim)): 20%
HER effect + SAF (HORVS Montoya [6]; 21 DAT (Final)): 5%
HER effect (HORVS Montoya [6]; 11 DAT (Interim)): 40%
HER effect (HORVS Montoya [6]; 21 DAT (Final)): 40%

C=CC1(C(=O)NC2C=CC(C(=O)OC)C2)CC(c2cc(F)cc(F)c2)=NO1 (centres unmarked) [Example 1.26]
HER effect + SAF (TRZAS Triso [1]; [16]): 10%
Reduction [%] (TRZAS Triso [1]; HER 0.5 g a.i./ha): 75%
Reduction [Difference] (TRZAS Triso [1]; HER 0.5 g a.i./ha): 30
HER effect (TRZAS Triso [1]; HER 0.5 g a.i./ha): 40%
Reduction [%] (ZEAMA Sileno [3]; [17]): 90%
Reduction [Difference] (ZEAMA Sileno [3]; [17]): 45
HER effect + SAF (ZEAMA Sileno [3]; [17]): 5%
HER effect (ZEAMA Sileno [3]; [17]): 50%
Reduction [%] (ZEAMA Sileno [3]; [18]): 36%
Reduction [Difference] (ZEAMA Sileno [3]; [18]): 25
Reduction [%] (ZEAMA Sileno [3]; [19]): 79%
Reduction [Difference] (ZEAMA Sileno [3]; [19]): 55
HER effect + SAF (ZEAMA Sileno [3]; [18]): 45%
HER effect + SAF (ZEAMA Sileno [3]; [19]): 15%
HER effect (ZEAMA Sileno [3]; [18]): 70%
HER effect (ZEAMA Sileno [3]; [19]): 70%
HER effect + SAF (HORVS Montoya [4]; [16]): 10%
Reduction [%] (HORVS Montoya [4]; HER 0.5 g a.i./ha): 75%
Reduction [Difference] (HORVS Montoya [4]; HER 0.5 g a.i./ha): 30
HER effect (HORVS Montoya [4]; HER 0.5 g a.i./ha): 40%
HER effect + SAF (HORVS Montoya [4]; [8]): 50%
Reduction [%] (HORVS Montoya [4]; HER 2 g a.i./ha): 29%
Reduction [Difference] (HORVS Montoya [4]; HER 2 g a.i./ha): 20
HER effect (HORVS Montoya [4]; HER 2 g a.i./ha): 70%
Reduction [%] (TRZAS Triso [5]; [15]): 31%
Reduction [Difference] (TRZAS Triso [5]; [15]): 20
Reduction [%] (TRZAS Triso [5]; [20]): 80%
Reduction [Difference] (TRZAS Triso [5]; [20]): 60
HER effect + SAF (TRZAS Triso [5]; [15]): 45%
HER effect + SAF (TRZAS Triso [5]; [20]): 15%
HER effect (TRZAS Triso [5]; [15]): 65%
HER effect (TRZAS Triso [5]; [20]): 75%
Reduction [%] (HORVS Montoya [6]; 21 DAT (Final)): 90%
Reduction [Difference] (HORVS Montoya [6]; 21 DAT (Final)): 45
HER effect + SAF (HORVS Montoya [6]; 21 DAT (Final)): 5%
HER effect (HORVS Montoya [6]; 21 DAT (Final)): 50%
